{"source": "patent US4163058A", "about": "“Derivatives of 5,5-diphenylhydantoin exhibiting enhanced solubility and the therapeutic use thereof” (INTERX Research Corporation, priority 1977, dated 1979)", "key": {"[1]": {"settings": "37° C.; cited from earlier work"}, "[2]": {"settings": "cited from earlier work"}, "[3]": {"settings": "aqueous; comparison value for the parent; cited from earlier work"}, "[4]": {"settings": "in vivo, iv; cited from earlier work"}, "[5]": {"settings": "oral, sodium salt; due to alkalinity of the dosage form; cited from earlier work"}, "[6]": {"settings": "in vivo; cited from earlier work"}, "[7]": {"assay": "aqueous solubility (compound added in increments to water until solubility was determined)", "format": "physicochemical", "description": "The compound was added in increments to water until solubility was determined."}}, "note": "Read-outs that look alike come from different tables or passages of the source.", "data": [{"smiles": "O=C1NC(=O)C(c2ccccc2)(c2ccccc2)N1", "note": "[5,5-diphenylhydantoin]", "values": [{"measurement": "solubility", "setting": "[1]", "value": "less than 2 mg. in 100 ml"}, {"measurement": "release patterns", "setting": "[2]; both in vitro and in vivo", "value": "often produces unpredictable and erractic release patterns"}, {"measurement": "bioavailability", "setting": "[2]; per se as well as from pharmaceutical dosage forms", "value": "low bioavailability"}, {"measurement": "solubility of the parent specie", "setting": "[3]", "value": "less than 0.02 mg/ml"}]}, {"smiles": "O=C1NC(=O)C(c2ccccc2)(c2ccccc2)N1.[Na]", "values": [{"measurement": "precipitation and blood levels", "setting": "[4]", "value": "frequently leads to precipitation of 5,5-diphenylhydantoin as well as erractic blood levels"}, {"measurement": "gastric irritation", "setting": "[5]", "value": "frequently causes gastric irritation"}, {"measurement": "precipitation at the injection site and release", "setting": "[6]", "value": "precipitate 5,5-diphenylhydantoin at the injection site leading to delayed and erractic 5,5-diphenylhydantoin release"}]}, {"smiles": "CN(C)CC(=O)OCN1C(=O)NC(c2ccccc2)(c2ccccc2)C1=O", "note": "[3-(N,N-dimethylglycyloxymethyl)diphenylhydantoin methanesulfonate]", "values": [{"measurement": "solubility", "setting": "[7]; in water", "value": "> 100", "unit": "mg/mL"}, {"measurement": "increase in aqueous solubility over diphenylhydantoin", "setting": "[7]; versus diphenylhydantoin per se", "value": "~5,000 fold"}]}]}
